Experimental findings from patent US12606572B2, “Substituted heterocycles and uses thereof” (Kumquat Biosciences Inc., priority 2023, dated 2026) are described below.

Assay [1] concerns the target T1, KRAS WT (Homo sapiens, UniProt P01116).
T1 construct: made in house; host or cells: E. coli BL21 (DE3)
As to the kind of experiment: HTRF assay, interaction of GST-tagged K-Ras with His-tagged hSOS1 (KRAS wildtype). The class given is biochemical. Particulars: <500 nM, read-out: Inhibition of KRAS WT (IC50). From the text: (§1) This assay can be also used to assess a selective inhibition or reduction of signaling output of a mutant Ras protein relative to a wildtype, or relative to a different mutant Ras protein. For example, the equilibrium interaction of wildtype KRAS or K-Ras mutant (e.g., wildtype or a mutant thereof) with SOS1 (e.g., hSOS1) can be assessed as a proxy or an indication for the ability of a subject compound to bind and inhibit Ras protein. The HTRF assay detects from (i) a fluorescence resonance energy transfer (FRET) donor (e.g., antiGST-Europium) that is bound to GST-tagged K-Ras mutant to (ii) a FRET acceptor (e.g., anti-6His-XL665) bound to a His-tagged hSOS1.
(§2) The assay buffer can contain ˜5 mM HEPES pH 7.4, ˜150 mM NaCl, ˜1 mM DTT, 0.05% BSA and 0.0025% (v/v) Igepal. A Ras working solution is prepared in an assay buffer containing typically a suitable amount of the protein construct (e.g., GST-tagged K-Ras mutant) and the FRET donor (e.g., antiGST-Eu(K) from Cisbio, France). A SOS1 working solution is prepared in an assay buffer containing suitable amount of the protein construct (e.g., His-hSOS1) and the FRET acceptor (e.g., anti-6His-XL665 from Cisbio, France). A suitable amount of the protein construct will depend on the range of activity or range of IC50 values being detected or under investigation. For detecting an IC50 within a range of 500 nM, the protein constructs of the same range of molarity can be utilized.
(§3) A fixed volume of DMSO with or without test compound is transferred into a 384-well plate. Ras working solution is added to all wells of the test plate. SOS1 working solution is added to all wells except for those that are subsequently filled with inhibitor control solution. Upon incubation for about 10 minutes or longer, the fluorescence is measured with a M1000Pro plate reader (Tecan) using HTRF detection (excitation 337 nm, emission 1: 620 nm, emission 2: 665 nm). Compounds are tested in duplicate at different concentrations (for example, 10 μM, 2.5 μM, 0.63 μM, 0.16 μM, 0.04 μM, 0.01 μM test compound). The ratiometric data (i.e., emission 2 divided by emission 1) is used to calculate IC50 values against Ras using GraphPad Prism (GraphPad software). Signaling output measured in terms of IC50 values can be obtained and a ratio of IC50 against one mutant relative to another mutant can be calculated. For instance, a selective reduction of K-Ras G12S signaling output can be evidenced by a ratio greater than one. In particular, a selective reduction of K-Ras G12S signaling relative to K-Ras WT signaling is evidenced if the ratio of IC50 (against K-Ras WT) to IC50 (against K-Ras G12S) is greater than 1.
On the technique in general: In TR-FRET formats the signal depends on donor and acceptor labels being close together.

Assay [2] has as its target T2, KRAS G12S (Homo sapiens, UniProt P01116, G12S).
T2 construct: made in house; host or cells: E. coli BL21 (DE3)
The experiment in a line: HTRF assay, interaction of GST-tagged K-Ras with His-tagged hSOS1 (KRAS G12S). To be noted: <500 nM, read-out: Inhibition of KRAS G12S (IC50). The class given is biochemical.
Source text: as §1, §2, §3

One may read the IC50 as the concentration needed to halve the response being measured.

T2 sequence (P01116 1-188 isoform P01116-2 G12S): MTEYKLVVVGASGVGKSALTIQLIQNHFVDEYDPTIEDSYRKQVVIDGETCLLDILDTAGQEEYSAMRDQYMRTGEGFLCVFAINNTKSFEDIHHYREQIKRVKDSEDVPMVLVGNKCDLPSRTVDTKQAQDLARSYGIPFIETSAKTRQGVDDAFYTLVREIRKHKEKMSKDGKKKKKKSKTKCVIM
T1 sequence (P01116 1-188 isoform P01116-2): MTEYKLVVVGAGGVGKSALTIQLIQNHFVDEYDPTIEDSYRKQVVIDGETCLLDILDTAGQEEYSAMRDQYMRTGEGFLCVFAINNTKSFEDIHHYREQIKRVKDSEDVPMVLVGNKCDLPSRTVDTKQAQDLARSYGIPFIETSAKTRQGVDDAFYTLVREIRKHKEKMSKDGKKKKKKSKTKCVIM

Consider `CC1([C@@H]2[C@H](CN3CCOc4c(Cl)c(-c5ccc(F)c6sc(N)c(C#N)c56)c(F)c5nc(OC[C@@]67CCCN6C[C@H](F)C7)nc3c45)CN2C(=O)n2cnc(F)n2)CC1` (single isomer, unassigned) [Compound 420], for which the IC50 in assay [1] and in assay [2] was under 500 nM in each case.
For `Cc1ncn(C(=O)N2C[C@@H](CN3CCOc4c(Cl)c(-c5ccc(F)c6sc(N)c(C#N)c56)c(F)c5nc(OC[C@@]67CCCN6C[C@H](F)C7)nc3c45)[C@H]2C2(C)CC2)c1C` (single isomer, unassigned) [Compound 476], the IC50 in assay [1] and in assay [2] was under 500 nM in each case.
For the molecule `C[C@@H]1CCOc2c(Cl)c(-c3ccc(F)c4sc(N)c(C#N)c34)c(F)c3nc(OC[C@@]45CCCN4C[C@H](F)C5)nc(c23)N1CC1CCN(C(=O)n2ccnc2)C1` (stereo partly drawn) [Compound 417, 4-((5R)-4-((1-(1H-imidazole-1-carbonyl)pyrrolidin-3-yl)methyl)-9-chloro-11-fluoro-2-(((2R, 7aS)-2-fluorotetrahydro-1H-pyrrolizin-7a(5H)-yl)methoxy)-5-methyl-4,5,6,7-tetrahydro-[1,5]oxazocino [4,3,2-de]quinazolin-10-yl)-2-amino-7-fluorobenzo [b]thiophene-3-carbonitrile], the IC50 in assay [1] and in assay [2] was under 500 nM in each case.
`Cc1cn(C(=O)N(C)[C@@H]2C[C@@H]3CCOc4c(Cl)c(-c5ccc(F)c6sc(N)c(C#N)c56)c(F)c5nc(OC[C@@]67CCCN6C[C@H](F)C7)nc(c45)N3C2)cn1` (single isomer, unassigned) [Compound 472]: the IC50 in assay [1] and in assay [2] was under 500 nM in each case.
Take `COCC1([C@@H]2[C@H](CN3CCOc4c(Cl)c(-c5ccc(F)c6sc(N)c(C#N)c56)c(F)c5nc(OC[C@@]67CCCN6C[C@H](F)C7)nc3c45)CN2C(=O)n2cnc(C)c2)CC1` [Compound 477, 2-amino-4-(8-chloro-10-fluoro-2-(((2R,7aS)-2-fluorotetrahydro-1H-pyrrolizin-7a(5H)-yl)methoxy)-4-(((2S,3R)-2-(1-(methoxymethyl)cyclopropyl)-1-(4-methyl-1H-imidazole-1-carbonyl)azetidin-3-yl)methyl)-5,6-dihydro-4H-[1,4]oxazepino[5,6,7-de]quinazolin-9-yl)-7-fluorobenzo [b]thiophene-3-carbonitrile]: the 50% inhibitory concentration (IC50) in assay [1] and in assay [2] was under 500 nM in each case.
Take `C[C@@H]1[C@H](N2CCOc3c(Cl)c(-c4ccc(F)c5sc(N)c(C#N)c45)c(F)c4nc(OC[C@@]56CCCN5C[C@H](F)C6)nc2c34)CCN1C(=O)n1ccnc1` (single isomer, unassigned) [Compound 474]: the IC50 in assay [1] and in assay [2] was under 500 nM each time.
With `C[C@@H]1[C@H](N2CCCOc3c(Cl)c(-c4ccc(F)c5sc(N)c(C#N)c45)c(F)c4nc(OC[C@@]56CCCN5C[C@H](F)C6)nc2c34)CCN1C(=O)n1ccnc1` [Compound 481, 4-(4-((2R,3R)-1-(1H-imidazole-1-carbonyl)-2-methylpyrrolidin-3-yl)-9-chloro-11-fluoro-2-(((2R,7aS)-2-fluorotetrahydro-1H-pyrrolizin-7a(5H)-yl)methoxy)-4,5,6,7-tetrahydro-[1,5]oxazocino[4,3,2-de]quinazolin-10-yl)-2-amino-7-fluorobenzo[b]thiophene-3-carbonitrile], the half-maximal inhibitory concentration (IC50) in assay [1] and in assay [2] was under 500 nM throughout.
Regarding `C[C@H]1COc2c(Cl)c(-c3ccc(F)c4sc(N)c(C#N)c34)c(F)c3nc(OC[C@@]45CCCN4C[C@H](F)C5)nc(c23)N1C[C@@H]1CN(C(=O)n2ccnc2)[C@@H]1C1(C)CC1` (single isomer, unassigned) [Compound 421], the IC50 in assay [2] was under 500 nM.
The same measure, in the same setting: in the case of `CN1[C@H](C2CC2)[C@@H]1C(=O)N1CC(CN2CCOc3c(Cl)c(-c4ccc(F)c5sc(N)c(C#N)c45)c(F)c4nc(OC[C@@]56CCCN5C[C@H](F)C6)nc2c34)C1` (stereo partly drawn) [Compound 440, 2-amino-4-(8-chloro-4-((1-((2R,3R)-3-cyclopropyl-1-methylaziridine-2-carbonyl)azetidin-3-yl)methyl)-10-fluoro-2-(((2R,7aS)-2-fluorotetrahydro-1H-pyrrolizin-7a (5H)-yl)methoxy)-5,6-dihydro-4H-[1,4]oxazepino[5,6,7-de]quinazolin-9-yl)-7-fluorobenzo[b]thiophene-3-carbonitrile] it was under 500 nM; in that of `CC(CN(C)C(=O)n1ccnc1)N1c2nc(OC[C@@]34CCCN3C[C@H](F)C4)nc3c(F)c(-c4ccc(F)c5sc(N)c(C#N)c45)c(Cl)c(c23)OC[C@@H]1[C@H](C)O` (stereo partly drawn) [Compound 451, N-(2-((5R)-9-(2-amino-3-cyano-7-fluorobenzo[b]thiophen-4-yl)-8-chloro-10-fluoro-2-(((2R,7aS)-2-fluorotetrahydro-1H-pyrrolizin-7a(5H)-yl)methoxy)-5-((S)-1-hydroxyethyl)-5,6-dihydro-4H-[1,4]oxazepino [5,6,7-de]quinazolin-4-yl)propyl)-N-methyl-1H-imidazole-1-carboxamide], under 500 nM.
The same measure, in the same setting: in the case of `N#Cc1cn(C(=O)N2CC(CN3CCOc4c(Cl)c(-c5ccc(F)c6sc(N)c(C#N)c56)c(F)c5nc(OC[C@@]67CCCN6C[C@H](F)C7)nc3c45)C2)cn1` [Compound 436, 1-(3-((9-(2-amino-3-cyano-7-fluorobenzo[b]thiophen-4-yl)-8-chloro-10-fluoro-2-(((2R,7aS)-2-fluorotetrahydro-1H-pyrrolizin-7a(5H)-yl)methoxy)-5,6-dihydro-4H-[1,4]oxazepino [5,6,7-de]quinazolin-4-yl)methyl)azetidine-1-carbonyl)-1H-imidazole-4-carbonitrile] it was under 500 nM; in that of `CC1([C@@H]2[C@H](CN3CCOc4c(Cl)c(-c5ccc(F)c6sc(N)c(C#N)c56)c(F)c5nc(OC[C@@]67CCCN6C[C@H](F)C7)nc3c45)CN2C(=O)n2ccnc2)CC1` [Compound 486, 4-(4-(((2S,3R)-1-(1H-imidazole-1-carbonyl)-2-(1-methylcyclopropyl)azetidin-3-yl)methyl)-8-chloro-10-fluoro-2-(((2R,7aS)-2-fluorotetrahydro-1H-pyrrolizin-7a(5H)-yl)methoxy)-5,6-dihydro-4H-[1,4]oxazepino [5,6,7-de]quinazolin-9-yl)-2-amino-7-fluorobenzo[b] thiophene-3-carbonitrile], under 500 nM.
Still for that read-out and setting: in the case of `C[C@H](O)[C@H]1COc2c(Cl)c(-c3ccc(F)c4sc(N)c(C#N)c34)c(F)c3nc(OC[C@@]45CCCN4C[C@H](F)C5)nc(c23)N1C1CC(CN(C)C(=O)n2ccnc2)C1` (stereo partly drawn) [Compound 401, N-((3-((5R)-9-(2-amino-3-cyano-7-fluorobenzo[b]thiophen-4-yl)-8-chloro-10-fluoro-2-(((2R,7aS)-2-fluorotetrahydro-1H-pyrrolizin-7a(5H)-yl)methoxy)-5-((S)-1-hydroxyethyl)-5,6-dihydro-4H-[1,4]oxazepino[5,6,7-de]quinazolin-4-yl)cyclobutyl)methyl)-N-methyl-1H-imidazole-1-carboxamide] it was under 500 nM.
For `CN1[C@H](C2CC2)[C@@H]1C(=O)N1CC(CN2CCOc3c(Cl)c(-c4ccc(F)c5sc(N)c(C#N)c45)c(F)c4nc(OC[C@@]56CCCN5C[C@H](F)C6)nc2c34)C1` (stereo partly drawn) [Compound 460, 2-amino-4-(8-chloro-4-((1-((2R,3R)-3-cyclopropyl-1-methylaziridine-2-carbonyl)azetidin-3-yl)methyl)-10-fluoro-2-(((2R,7aS)-2-fluorotetrahydro-1H-pyrrolizin-7a(5H)-yl)methoxy)-5,6-dihydro-4H-[1,4]oxazepino [5,6,7-de]quinazolin-9-yl)-7-fluorobenzo[b]thiophene-3-carbonitrile], in assay [1], the IC50 is under 500 nM.
